Results: the supplement of paper PMC10307832

Experiments:
Experiment in all cases: relative viability (nuclei count vs DMSO), 5 days (fraction); higher = more cells survive
Doramapimod + OSI-027 = compound: Cc1ccc(-n2nc(C(C)(C)C)cc2NC(=O)Nc2ccc(OCCN3CCOCC3)c3ccccc23)cc1 [Doramapimod] + COc1cccc2cc(-c3nc([C@H]4CC[C@H](C(=O)O)CC4)n4ncnc(N)c34)[nH]c12 [OSI-027] (partner 0.5 µM)
Procedure, shortened: (§1)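 The day after seeding in 1536-well plates, lung cancer cell lines were treated by pin tool with a single drug, or with a fixed anchor-drug dose together with five library-drug doses (not always all listed) in √10 steps. After 5 days, a combined fix-and-stain solution (final 0.05% Triton X-100, 1% formaldehyde, 1 ug/ml Hoechst) was added. Nuclei counted on 4× images gave relative viability as treated counts over vehicle counts, reported as the median of duplicate plates.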

[1] = compound: Cc1ccc(-n2nc(C(C)(C)C)cc2NC(=O)Nc2ccc(OCCN3CCOCC3)c3ccccc23)cc1 [Doramapimod] + CC(=O)c1c(C)c2cnc(Nc3ccc(N4CCNCC4)cn3)nc2n(C2CCCC2)c1=O [Palbociclib] (partner 0.5 µM)
Procedure, shortened: as §1

RAF265 + Olaparib = compound: Cn1c(Nc2ccc(C(F)(F)F)cc2)nc2cc(Oc3ccnc(-c4ncc(C(F)(F)F)[nH]4)c3)ccc21 [RAF265] + O=C(c1cc(Cc2n[nH]c(=O)c3ccccc23)ccc1F)N1CCN(C(=O)C2CC2)CC1 [Olaparib] (partner 8 µM)
Procedure, shortened: as §1

IPA-3 + Decitabine = compound: C1=CC=C2C(=C1)C=CC(=C2SSC3=C(C=CC4=CC=CC=C43)O)O [IPA-3] + Nc1ncn([C@H]2C[C@H](O)[C@@H](CO)O2)c(=O)n1 [Decitabine] (partner 2 µM)
Procedure, shortened: as §1

UMC-11
relative viability (Doramapimod + OSI-027; first compound 0.02 µM): 0.49
relative viability (Doramapimod + OSI-027; first compound 0.06325 µM): 0.385
relative viability (Doramapimod + OSI-027; first compound 0.2 µM): 0.472
relative viability (Doramapimod + OSI-027; first compound 0.6325 µM): 0.438
relative viability (Doramapimod + OSI-027; first compound 2 µM): 0.444
relative viability ([1]; first compound 0.02 µM): 0.342
relative viability ([1]; first compound 0.06325 µM): 0.328
relative viability ([1]; first compound 0.2 µM): 0.313
relative viability ([1]; first compound 0.6325 µM): 0.323
relative viability ([1]; first compound 2 µM): 0.308
relative viability (RAF265 + Olaparib; first compound 0.01 µM): 0.408
relative viability (RAF265 + Olaparib; first compound 0.03162 µM): 0.368
relative viability (RAF265 + Olaparib; first compound 0.1 µM): 0.966
relative viability (RAF265 + Olaparib; first compound 0.3162 µM): 0.31
relative viability (RAF265 + Olaparib; first compound 1 µM): 0.329
relative viability (IPA-3 + Decitabine; first compound 0.2 µM): 0.682
relative viability (IPA-3 + Decitabine; first compound 0.6325 µM): 0.759
relative viability (IPA-3 + Decitabine; first compound 2 µM): 0.568
relative viability (IPA-3 + Decitabine; first compound 6.325 µM): 0.362
relative viability (IPA-3 + Decitabine; first compound 20 µM): 0.594
